Experimental data published in patent US10532995B2, “Substituted pyrazole compounds as serine protease inhibitors” (VERSEON CORPORATION, priority 2015, dated 2020).
Counter-ions that a name gives are not always drawn.

Target: T1, Human thrombin (Homo sapiens, UniProt P00734)
T1 construct: purchased Haematologic Technologies Inc
Experiment: Thrombin protease activity inhibition, chromogenic substrate S-2238
Format: biochemical
Details: 3 nM thrombin, 125 μM S-2238, 10 min pre-incubation, RT
Experimental: The thrombin activity reported herein (e.g., Table A) was obtained as follows. […] Thrombin was assayed in buffer containing 0.05 M Tris (pH 7.4), 0.015 M NaCl and 0.01% PEG-8000. The final concentration of enzyme used was 3 nM thrombin. […] All assays were performed in 96-well microtiter plates at room temperature (RT). […] Inhibitor IC50 values were determined by adding test compound as ten point, three-fold serial dilutions in buffer solution, as known in the art. The plate was read at 10 minutes after substrate addition. The IC50 was calculated by plotting the percent (%) inhibition against compound concentration and fitting the data to a constrained four parameter sigmoidal curve, as known in the art.

Compound | IC50
O=C(c1ccoc1)n1nc(C2CNC2)cc1NCc1ccc(Cl)s1 [Entry 128, 3-(azetidin-3-yl)-N-[(5-chlorothiophen-2-yl)methyl]-1-(furan-3-carbonyl)-1H-pyrazol-5-amine; trifluoroacetic acid] | 1000 to 10000 nM
O=C(c1ccsc1)n1nc(C2CNC2)cc1NCc1ccc(Cl)s1 [Entry 129, 3-(azetidin-3-yl)-N-[(5-chlorothiophen-2-yl)methyl]-1-(thiophene-3-carbonyl)-1H-pyrazol-5-amine; trifluoroacetic acid] | 1000 to 10000 nM
O=S(=O)(c1ccccc1)N1CCC(c2cc(NCc3ccc(Cl)s3)[nH]n2)CC1 [Entry 130, 3-[1-(benzenesulfonyl)piperidin-4-yl]-N-[(5-chlorothiophen-2-yl)methyl]-1H-pyrazol-5-amine] | 1000 to 10000 nM
Clc1ccc(CNc2cc(C3CC4CCC(C3)N4)n[nH]2)s1 (stereo not shown) [Entry 131, 3-8-azabicyclo[3.2.1]octan-3-yl-N-[(5-chlorothiophen-2-yl)methyl]-1H-pyrazol-5-amine] | > 100000 nM
CN(C)S(=O)(=O)N1CCC(c2cc(NCc3ccc(Cl)s3)n(C(=O)C(C)(C)C)n2)CC1 [Entry 133, 4-(5-[(5-chlorothiophen-2-yl)methyl]amino-1-(2,2-dimethylpropanoyl)-1H-pyrazol-3-yl)-N,N-dimethylpiperidine-1-sulfonamide] | 100 to 1000 nM
CN(C)C(=O)N1CCC(c2cc(NCc3ccc(Cl)s3)n(C(=O)C(C)(C)CO)n2)CC1 [Entry 134, 4-(5-[(5-chlorothiophen-2-yl)methyl]amino-1-(3-hydroxy-2,2-dimethylpropanoyl)-1H-pyrazol-3-yl)-N,N-dimethylpiperidine-1-carboxamide] | < 100 nM
CN(C)S(=O)(=O)N1CCC(c2cc(NCc3ccc(Cl)s3)n(C(=O)C(C)(C)CO)n2)CC1 [Entry 135, 4-(5-[(5-chlorothiophen-2-yl)methyl]amino-1-(3-hydroxy-2,2-dimethylpropanoyl)-1H-pyrazol-3-yl)-N,N-dimethylpiperidine-1-sulfonamide] | < 100 nM
CN(C)C(=O)N1CCC(c2cc(NCc3ccc(Cl)s3)n(C(=O)N(C)C)n2)CC1 [Entry 136, 4-(5-[(5-chlorothiophen-2-yl)methyl]amino-1-(dimethylcarbamoyl)-1H-pyrazol-3-yl)-N,N-dimethylpiperidine-1-carboxamide] | > 100000 nM
CN(C)C(=O)N1CCC(c2cc(NCc3ccc(Cl)s3)[nH]n2)CC1 [Entry 137, 4-(5-[(5-chlorothiophen-2-yl)methyl]amino-1H-pyrazol-3-yl)-N,N-dimethylpiperidine-1-carboxamide] | > 100000 nM
CN(C)S(=O)(=O)N1CCC(c2cc(NCc3ccc(Cl)s3)[nH]n2)CC1 [Entry 138, 4-(5-[(5-chlorothiophen-2-yl)methyl]amino-1H-pyrazol-3-yl)-N,N-dimethylpiperidine-1-sulfonamide] | > 100000 nM
CC1(C(=O)n2nc(C3CCN(C(=O)N4CCOCC4)CC3)cc2NCc2ccc(Cl)s2)CCC(O)CC1 (stereo not shown) [Entry 139, 4-(5-[(5-chlorothiophen-2-yl)methyl]amino-3-[1-(morpholine-4-carbonyl)piperidin-4-yl]-1H-pyrazole-1-carbonyl)-4-methylcyclohexan-1-ol] | < 100 nM
CC(C)(C)C(=O)n1nc(C2CCN(C(=O)N3CCOCC3)CC2)c(C#N)c1NCc1ccc(Cl)s1 [Entry 140, 5-[(5-chlorothiophen-2-yl)methyl]amino-1-(2,2-dimethylpropanoyl)-3-[1-(morpholine-4-carbonyl)piperidin-4-yl]-1H-pyrazole-4-carbonitrile] | < 100 nM
CN1CCC(C)(C(=O)n2nc(C3CCN(C(=O)N4CCOCC4)CC3)cc2NCc2ccc(Cl)s2)CC1 [Entry 142, N-[(5-chlorothiophen-2-yl)methyl]-1-(1,4-dimethylpiperidine-4-carbonyl)-3-[1-(morpholine-4-carbonyl)piperidin-4-yl]-1H-pyrazol-5-amine; formic acid] | 100 to 1000 nM
O=C(c1cccc2c1OCCO2)n1nc(C2CCNCC2)cc1NCc1ccc(Cl)s1 [Entry 143, N-[(5-chlorothiophen-2-yl)methyl]-1-(2,3-dihydro-1,4-benzodioxine-5-carbonyl)-3-(piperidin-4-yl)-1H-pyrazol-5-amine hydrochloride] | 1000 to 10000 nM
COc1ccc(C(=O)n2nc(C3CCNCC3)cc2NCc2ccc(Cl)s2)c(OC)c1 [Entry 147, N-[(5-chlorothiophen-2-yl)methyl]-1-(2,4-dimethoxybenzoyl)-3-(piperidin-4-yl)-1H-pyrazol-5-amine] | 1000 to 10000 nM
COc1ccc(C(=O)n2nc(C3CCCN3)cc2NCc2ccc(Cl)s2)c(OC)c1 (stereo not shown) [Entry 148, N-[(5-chlorothiophen-2-yl)methyl]-1-(2,4-dimethoxybenzoyl)-3-(pyrrolidin-2-yl)-1H-pyrazol-5-amine] | < 100 nM
CC1CCCC(C)C1C(=O)n1nc(C2CCNCC2)cc1NCc1ccc(Cl)s1 (stereo not shown) [Entry 151, N-[(5-chlorothiophen-2-yl)methyl]-1-(2,6-dimethylcyclohexanecarbonyl)-3-(piperidin-4-yl)-1H-pyrazol-5-amine hydrochloride] | 1000 to 10000 nM

Compound | IC50
COc1ccccc1C(=O)n1nc(C2(C)CCCN2)cc1NCc1ccc(Cl)s1 (stereo not shown) [Entry 152, N-[(5-chlorothiophen-2-yl)methyl]-1-(2-methoxybenzoyl)-3-(2-methylpyrrolidin-2-yl)-1H-pyrazol-5-amine; formic acid] | 100 to 1000 nM
COc1ccccc1C(=O)n1nc(C2(C)CCCNC2)cc1NCc1ccc(Cl)s1 (stereo not shown) [Entry 153, N-[(5-chlorothiophen-2-yl)methyl]-1-(2-methoxybenzoyl)-3-(3-methylpiperidin-3-yl)-1H-pyrazol-5-amine] | 1000 to 10000 nM
COc1ccccc1C(=O)n1nc(C2(C)CCNCC2)cc1NCc1ccc(Cl)s1 [Entry 154, N-[(5-chlorothiophen-2-yl)methyl]-1-(2-methoxybenzoyl)-3-(4-methylpiperidin-4-yl)-1H-pyrazol-5-amine] | 1000 to 10000 nM
COc1ccccc1C(=O)n1nc(C2CCCO2)cc1NCc1ccc(Cl)s1 (stereo not shown) [Entry 156, N-[(5-chlorothiophen-2-yl)methyl]-1-(2-methoxybenzoyl)-3-(oxolan-2-yl)-1H-pyrazol-5-amine] | < 100 nM
COc1ccccc1C(=O)n1nc(C2CCCNC2)cc1NCc1ccc(Cl)s1 (stereo not shown) [Entry 157, N-[(5-chlorothiophen-2-yl)methyl]-1-(2-methoxybenzoyl)-3-(piperidin-3-yl)-1H-pyrazol-5-amine] | 100 to 1000 nM
COc1ccccc1C(=O)n1nc(C2CCCN2)cc1NCc1ccc(Cl)s1 (stereo not shown) [Entry 159, N-[(5-chlorothiophen-2-yl)methyl]-1-(2-methoxybenzoyl)-3-(pyrrolidin-2-yl)-1H-pyrazol-5-amine] | 100 to 1000 nM
COc1ccccc1C(=O)n1nc(C2CCN(CC(F)(F)F)CC2)cc1NCc1ccc(Cl)s1 [Entry 160, N-[(5-chlorothiophen-2-yl)methyl]-1-(2-methoxybenzoyl)-3-[1-(2,2,2-trifluoroethyl)piperidin-4-yl]-1H-pyrazol-5-amine] | 1000 to 10000 nM
CC1(C(=O)n2nc(C3(C)CCCNC3)cc2NCc2ccc(Cl)s2)CCOCC1 (stereo not shown) [Entry 162, N-[(5-chlorothiophen-2-yl)methyl]-1-(4-methyloxane-4-carbonyl)-3-(3-methylpiperidin-3-yl)-1H-pyrazol-5-amine] | 1000 to 10000 nM
CC1(C(=O)n2nc(C3CCCNC3)cc2NCc2ccc(Cl)s2)CCOCC1 (stereo not shown) [Entry 164, N-[(5-chlorothiophen-2-yl)methyl]-1-(4-methyloxane-4-carbonyl)-3-(piperidin-3-yl)-1H-pyrazol-5-amine] | 100 to 1000 nM
O=C(c1ccoc1)n1nc(C2CCCN2)cc1NCc1ccc(Cl)s1 (stereo not shown) [Entry 167, N-[(5-chlorothiophen-2-yl)methyl]-1-(furan-3-carbonyl)-3-(pyrrolidin-2-yl)-1H-pyrazol-5-amine] | < 100 nM
O=C(N1CCOCC1)N1CCC(c2cc(NCc3ccc(Cl)s3)n(C(=O)N3CCOCC3)n2)CC1 [Entry 168, N-[(5-chlorothiophen-2-yl)methyl]-1-(morpholine-4-carbonyl)-3-[1-(morpholine-4-carbonyl)piperidin-4-yl]-1H-pyrazol-5-amine] | 1000 to 10000 nM
O=C(C1CCCCC1)n1nc(C2CCNCC2)cc1NCc1ccc(Cl)s1 [Entry 169, N-[(5-chlorothiophen-2-yl)methyl]-1-cyclohexanecarbonyl-3-(piperidin-4-yl)-1H-pyrazol-5-amine hydrochloride] | > 100000 nM
O=C(C1CCCC1)n1nc(C2CCNCC2)cc1NCc1ccc(Cl)s1 [Entry 170, N-[(5-chlorothiophen-2-yl)methyl]-1-cyclopentanecarbonyl-3-(piperidin-4-yl)-1H-pyrazol-5-amine hydrochloride] | > 100000 nM
CS(=O)(=O)N1CCCC(c2cc(NCc3ccc(Cl)s3)[nH]n2)CC1 (stereo not shown) [Entry 171, N-[(5-chlorothiophen-2-yl)methyl]-3-(1-methanesulfonylazepan-4-yl)-1H-pyrazol-5-amine] | > 100000 nM
CS(=O)(=O)N1CC(c2cc(NCc3ccc(Cl)s3)[nH]n2)C1 [Entry 172, N-[(5-chlorothiophen-2-yl)methyl]-3-(1-methanesulfonylazetidin-3-yl)-1H-pyrazol-5-amine] | > 100000 nM
CS(=O)(=O)N1CCC(c2cc(NCc3ccc(Cl)s3)[nH]n2)CC1 [Entry 173, N-[(5-chlorothiophen-2-yl)methyl]-3-(1-methanesulfonylpiperidin-4-yl)-1H-pyrazol-5-amine] | > 100000 nM
CS(=O)(=O)N1CCCC1c1cc(NCc2ccc(Cl)s2)[nH]n1 (stereo not shown) [Entry 174, N-[(5-chlorothiophen-2-yl)methyl]-3-(1-methanesulfonylpyrrolidin-2-yl)-1H-pyrazol-5-amine] | > 100000 nM
